pIC50: −log10 of the molar value. Where two headings read alike, the source gives them in different places.
Columns and labels:
[1] = tested on: BT-549 (expressing wild type KRAS); experiment: Proliferation Assay (Cell Viability Assay); assay type: cell-based; settings: Homo sapiens; for IC50: BT-549, Proliferation assay, BT549, read-out: BT549 IC50 (nM) TNBC
Experimental: (§1) Cell lines: these Human tumor-derived cell lines were purchased from American Type Culture Collection. Human tumor-derived pancreatic cancer cell line MiaPaca-2 (expressing KRAS G12C mutant) and Panc-1 (expressing KRas G12D mutant), and Human non-small cell lung cancer (NSCLC) cell line A549 (expressing KRas G12S mutant), and Human melanoma cell line A375 (wild type Kras) were grown in complete DMEM-High Glucose medium. Human tumor-derived pancreatic cancer cell lines SU86.86 (expressing KRas G12D mutant), BxPC3 (expressing wild type K-Ras), and Human non-small cell lung cancer (NSCLC) cell lines NCI-H441 (expressing KRas G12S mutant), NCI-H1975 (expressing wild type KRas), NCI-H358 (expressing KRas G12C mutant), NCI-H1299 (expressing NRas Q61H mutant), and Human colon cancer cell line SW-620 (expressing KRas G12V mutant), Human triple negative breast cancer cell line HCC-1806 (expressing wild type KRas), and Human tumor-derived multiple myeloma cell line MM.1R (expressing wild type KRAS), were grown in RPMI 1640 medium. Human tumor-derived breast cancer cell line BT-549 (expressing wild type KRAS) was grown in RPMI 1640 medium in the presence of 11.8U insulin. Human tumor-derived pancreatic cancer cell line HPAF-II (expressing KRas G12D mutant), Human triple negative breast cancer cell line BT-20 (expressing wild type KRas), and Human colon cancer cell line LS123 (expressing KRas G12S mutant), were grown in EMEM medium. Human tumor-derived pancreatic cancer cell line CF-PAC1 (expressing KRas G12V mutant) was frown in IMDM medium, and Human colon cancer cell line HT29 (expressing wild type KRas) was grown in McCoy's 5A medium. The colon cancer cell line GP2d (expressing KRas G12D mutant) was purchased from MilliporeSigma and grown in DMEM-High Glucose medium. All cell lines were supplemented with penicillin (100 U/mL), streptomycin (100 μg/mL), and 10% heat-inactivated FBS at 37° C. in a humidified incubator with 5% CO2.
(§2) Method: Cells were plated at 2000 to 5000 cells/well density in 96-wells plate and cultured overnight. Small molecules that were tested were added to the cells in the final concentration of 10 μM in the presence of 0.3% DMSO and 10% FBS, and incubated for 2-4 days at 37° C. in a humidified incubator with 5% CO2. For IC50 value determination, serial dilutions of compounds were added to cells under the same conditions.
(§3) Assay: At the end of the incubation period, cell viability was determined using the CellTiter 96® Aqueous One Solution Cell Proliferation Assay according to manufacturer specifications (Promega, Madison, WI). The percentage of small molecules inhibition of cellular proliferation was calculated from raw data.

A375 (wild type Kras) = experiment: Proliferation Assay (Cell Viability Assay); assay type: cell-based; settings: Homo sapiens, A-375; for IC50: Proliferation assay, A375, read-out: A375 IC50 (nM) Melanoma
Experimental: as §1, §2, §3

[2] = tested on: GP2d (expressing KRas G12D mutant); experiment: Proliferation Assay (Cell Viability Assay); assay type: cell-based; settings: Homo sapiens; for IC50: Proliferation assay, read-out: GP2d IC50 (nM) Colorectal
Experimental: as §1, §2, §3

[3] = tested on: MM.1R (expressing wild type KRAS); experiment: Proliferation Assay (Cell Viability Assay); assay type: cell-based; settings: Homo sapiens, read-out: MM.1R IC50 (nM) Multiple Myloma
Experimental: as §1, §2, §3

[4] = tested on: NCI-H358 (expressing KRas G12C mutant); experiment: Proliferation Assay (Cell Viability Assay); assay type: cell-based; settings: Homo sapiens; for IC50: Proliferation assay, NCI-H358, read-out: NCI-H358 IC50 (nM) NSCLC
Experimental: as §1, §2, §3

[5] = tested on: NCI-H358 (expressing KRas G12C mutant) tumors; experiment: In vivo efficacy in NCI-H358 (G12C) model; parameters: species or system Athymic Nude-Foxn1 nu mice; settings: daily dose 50 mg/kg
Experimental: Biological Example 8: In Vivo Efficacy of Compound 6 in NCI-H358 (G12C) Model
Cell lines: Human tumor-derived non-small cell lung cancer cell lines NCI-H358 (expressing KRas G12C mutant was grown in RPMI-1640 Medium, ATCC 30-2001, supplemented with 10% fetal bovine serum (FBS) and Penicillin/Streptomycin 100U/ml (Lonza BioWhittaker, Morrisville, NC). Cells were trypsinized, washed in sterile PBS, counted, and resuspended in a 1:1 mix PBS/HC Matrigel (Corning, Glendale, AZ) at a concentration of 25×10^6/ml. Cells were kept on ice until injection.
The right flank of Athymic Nude-Foxn1 nu mice (The Jackson Laboratory, Harbor, ME) was injected subcutaneously with 5×10^6 cells in 200 μl of sterile PBS/Matrigel solution. Tumor mass was first measured 4 days after injection and mice were randomized on the basis of these measurements. Treatment was begun when tumors reached 150-200 mm^3, ^˜5-8 days after injection. Compound 6 was formulated in 20% captisol (50 mM citrate buffer, PH 5.0), and mice received either daily dose of vehicle or 50 mg/kg body weight of the formulated compound 6. Tumors were measured using digital calipers and volume (v) was calculated using the formula V=(W(2)×L)/2 where V is tumor volume, W is tumor width, and L is tumor length. Mice were housed in accordance with IACUC guidelines. The calculated Tumor Growth Inhibition (TGI) was 80%.

[6] = tested on: SW-620 (expressing KRas G12V mutant); experiment: Proliferation Assay (Cell Viability Assay); assay type: cell-based; settings: Homo sapiens, SW-620, colon
Experimental: (§4) Cell lines: Human tumor-derived cell lines were purchased from American Type Culture Collection. Human tumor-derived pancreatic cancer cell line MiaPaca-2 (expressing KRAS G12C mutant) and Panc-1 (expressing KRas G12D mutant), and Human non-small cell lung cancer (NSCLC) cell line A549 (expressing KRas G12S mutant) were grown in complete DMEM-High Glucose medium. Human colon cancer cell line SW-620 (expressing KRas G12V mutant) was grown in RPMI 1640 medium. All cell lines were supplemented with penicillin (100 U/mL), streptomycin (100 μg/mL), and 10% heat-inactivated FBS at 37° C. in a humidified incubator with 5% CO2.
as §2, with “to be” for “that were”, “FBS” for “FBS,”
as §3, §1, §2

[7] = tested on: Panc-1 (expressing KRas G12D mutant); experiment: Proliferation Assay (Cell Viability Assay); assay type: cell-based; settings: Homo sapiens, Panc1, pancreatic
Experimental: as §4
as §2, with “to be” for “that were”, “FBS” for “FBS,”
as §3, §1, §2

active/cleaved caspase 9 = experiment: Cell-based caspase activation assay (western blot); parameters: species or system human

IC50 [1] | IC50 (A375 (wild type Kras)) | IC50 [3] | IC50 [4] | pIC50 ([1]; BT-549, Breast (TNBC), KRas WT, read-out: Proliferation assay IC50) | pIC50 (A375 (wild type Kras); A375, melanoma, KRas WT, read-out: Proliferation assay IC50) | pIC50 ([4]; NCI-H358, NSCLC, KRas G12C, read-out: Proliferation assay IC50) | Weight loss ([5]; NCI-H358 tumor-bearing nude mice) | pIC50 [6] | pIC50 [7] | SMILES | IC50 [2] | pIC50 ([2]; colon, KRas G12D, read-out: Proliferation assay IC50) | Tumor Growth Inhibition (TGI) ([5]; NCI-H358 subcutaneous tumors in nude mice, 20% captisol formulation) | Caspase 9 activation (active/cleaved caspase 9; HCC1806, after 48 hours) | Caspase 9 activation (active/cleaved caspase 9; NCI-H358, after 48 hours)
10 to 50 nM | > 50 nM | < 1 nM | > 50 nM |  |  |  |  |  |  | Cc1c(-c2ccn(C)n2)cn2nc(-c3nccn3C)nc(Nc3cc(C4CC4)[nH]n3)c12 [Compound 104, N-(5-Cyclopropyl-1H-pyrazol-3-yl)-5-methyl-2-(1-methyl-1H-imidazol-2-yl)-6-(1-methyl-1H-pyrazol-3-yl)pyrrolo[2,1-f][1,2,4]triazin-4-amine] | 10 to 50 nM |  |  |  | 
> 50 nM | > 50 nM | 1 to 10 nM | 10 to 50 nM | > 6.82 | > 6.82 | > 6.82 | No weight loss was detected | 6.30 to 6.82 | > 6.82 | COc1cc(Nc2nc(-c3nccn3C)nn3cc(-c4ccn(C(C)C)n4)c(C)c23)ncn1 [Compound 6, 6-(1-Isopropyl-1H-pyrazol-3-yl)-N-(6-methoxypyrimidin-4-yl)-5-methyl-2-(1-methyl-1H-imidazol-2-yl)pyrrolo[2,1-f][1,2,4]triazin-4-amine] | > 50 nM | 6.30 to 6.82 | 80% |  | 
1 to 10 nM | 1 to 10 nM | < 1 nM | 1 to 10 nM |  |  |  |  |  |  | COc1ccnc(Nc2nc(-c3nccn3C)nn3cc(-c4ccn(C)n4)c(C)c23)c1 [Compound 102, N-(4-Methoxypyridin-2-yl)-5-methyl-2-(1-methyl-1H-imidazol-2-yl)-6-(1-methyl-1H-pyrazol-3-yl)pyrrolo[2,1-f][1,2,4]triazin-4-amine] | 10 to 50 nM |  |  |  | 
10 to 50 nM | > 50 nM | < 1 nM | > 50 nM |  |  |  |  |  |  | Cc1c(-c2ccn(C)n2)cn2nc(-c3nccn3C)nc(Nc3cc4n(n3)CCC4)c12 [Compound 100, N-(5,6-Dihydro-4H-pyrrolo[1,2-b]pyrazol-2-yl)-5-methyl-2-(1-methyl-1H-imidazol-2-yl)-6-(1-methyl-1H-pyrazol-3-yl)pyrrolo[2,1-f][1,2,4]triazin-4-amine] | 10 to 50 nM |  |  |  | 
1 to 10 nM | 1 to 10 nM | < 1 nM | 1 to 10 nM |  |  |  |  |  |  | Cc1c(-c2ccn(C)n2)cn2nc(-c3nccn3C)nc(Nc3cc4n(n3)CCO4)c12 [Compound 124, N-(5-Methyl-2-(1-methyl-1H-imidazol-2-yl)-6-(1-methyl-1H-pyrazol-3-yl)pyrrolo[2,1-f][1,2,4]triazin-4-yl)-2,3-dihydropyrazolo[5,1-b]oxazol-6-amine] | 1 to 10 nM |  |  | yes | yes
